Results on 20 compounds are retold here after patent publication US6762180B1, “Substituted indolines which inhibit receptor tyrosine kinases” (Boehringer Ingelheim Pharma KG, priority 1999, dated 2004).

The test system of data set [1] is Human umbilical endothelial cells (HUVEC). As to the kind of experiment: Inhibition of VEGF165-stimulated HUVEC proliferation (3H-thymidine incorporation). The class given is cell-based. Particulars: HUVEC starved 16 hours, stimulated with 5 ng/ml VEGF165 and 10 μg/ml heparin, 76 hours incubation, then 16 hours 3H-thymidine. The procedure:
Human umbilical endothelial cells (HUVEC) were cultivated in IMDM (Gibco BRL), supplemented with 10% foetal calf serum (FBS) (Sigma), 50 μM of β-mercaptoethanol (Fluka), standard antibiotics, 15 μg/ml of endothelial cell growth factor (ECGS, Collaborative Biomedical Products) and 100 μg/ml of heparin (Sigma) on gelatine-coated culture dishes (0.2% gelatine, Sigma) at 37° C., under 5% CO2 in a water-saturated atmosphere.
In order to investigate the inhibitory activity of the compounds according to the invention the cells were starved for 16 hours, i.e. kept in culture medium without growth factors (ECGS+heparin). The cells were detached from the culture dishes using trypsin/EDTA and washed once in serumontaining medium. Then they were seeded out in amounts of 2.5×10^3 cells per well.
The proliferation of the cells was stimulated with 5 ng/ml of VEGF165 (vascular endothelial growth factor; H. Weich, GBF Braunschweig) and 10 μg/ml of heparin. As a control, 6 wells in each dish were not stimulated.
The compounds according to the invention were dissolved in 100% dimethylsulphoxide and added to the cultures in various dilutions in triplicate, the maximum dimethyl sulphoxide concentration being 0.3%.
The cells were incubated for 76 hours at 37° C., then for a further 16 hours ^3H-thymidine (0.1 μCi/well, Amersham) was added in order to determine the DNA synthesis. Then the radioactively labelled cells were immnobilised on filter mats and the radioactivity incorporated was measured in a β-counter. In order to determine the inhibitory activity of the compounds according to the invention the mean value of the non-stimulated cells was subtracted from the mean value of the factor-stimulated cells (in the presence or absence of the compounds according to the invention).
The relative cell proliferation was calculated as a percentage of the control (HUVEC without inhibitor) and the concentration of active substance which inhibits the proliferation of the cells by 50% (IC50) was determined.
(In general: Incorporation of labelled thymidine or its analogues reports DNA synthesis.)

A word on the IC50: it is the concentration that gives 50% inhibition. As to `CCOC(=O)c1ccc2c(c1)NC(=O)/C2=C(\Nc1ccc(CN2CCCCC2)cc1)c1ccccc1` [(a), 3-Z-[1-(4-(piperidin-1-yl-methyl)-anilino)-1-phenyl-methylene]-6-ethoxycarbonyl-2-indolinone], the IC50 in data set [1] was 40 nM.
In the case of `NC(=O)c1ccc2c(c1)NC(=O)/C2=C(\Nc1ccc(CN2CCCCC2)cc1)c1ccccc1` [(b), 3-Z-[1-(4-(piperidin-1-yl-methyl)-anilino)-1-phenyl-methylene]-6-carbamoyl-2-indolinone], the IC50 in data set [1] is 350 nM.
Still for that read-out and setting: the result for `COC(=O)c1ccc2c(c1)NC(=O)/C2=C(\Nc1ccc(CN2CCCCC2)cc1)c1ccccc1` [(c), 3-Z-[1-(4-(piperidin-1-yl-methyl)-anilino)-1-phenyl-methylene]-6-methoxycarbonyl-2-indolinone] reads 10 nM; that for `CCOC(=O)c1ccc2c(c1)NC(=O)/C2=C(\Nc1ccc(CN(C)C)cc1)c1ccccc1` [(d), 3-Z-[1-(4-(dimethylaminomethyl)-anilino)-1-phenyl-methylene]-6-ethoxycarbonyl-2-indolinone], 20 nM.
With `CCOC(=O)c1ccc2c(c1)NC(=O)/C2=C(\Nc1ccc(CN2C(C)CCCC2C)cc1)c1ccccc1` (centres unmarked) [(e), 3-Z-[1-(4-((2,6-dimethyl-piperidin-1-yl)-methyl)-anilino)-1-phenyl-methylene]-6-ethoxycarbonyl-2-indolinone], the half-inhibitory concentration (IC50) in data set [1] worked out at 50 nM.
Same read-out and setting: the result for `CCOC(=O)c1ccc2c(c1)NC(=O)/C2=C(\Nc1ccc(N(CCN(C)C)C(C)=O)cc1)c1ccccc1` [(f), 3-Z-[1-(4-(N-(2-dimethylamino-ethyl)-N-acetyl-amino)-anilino)-1-phenyl-methylene]-6-ethoxycarbonyl-2-indolinone] reads 10 nM; that for `CCOC(=O)c1ccc2c(c1)NC(=O)/C2=C(\Nc1ccc(N(CCCN(C)C)C(C)=O)cc1)c1ccccc1` [(g), 3-Z-[1-(4-(N-(3-dimethylamino-propyl)-N-acetyl-amino)-anilino)-1-phenyl-methylene]-6-ethoxycarbonyl-2-indolinone], 3 nM; that for `CCOC(=O)c1ccc2c(c1)NC(=O)/C2=C(\Nc1ccc(N(CCN(C)C)S(C)(=O)=O)cc1)c1ccccc1` [(h), 3-Z-[1-(4-(N-(2-dimethylamino-ethyl)-N-methylsulphonyl-amino)-anilino)-1-phenyl-methylene]-6-ethoxycarbonyl-2-indolinone], 10 nM.
For `COC(=O)c1ccc2c(c1)NC(=O)/C2=C(\Nc1ccc(CN(C)C)cc1)c1ccccc1` [(i), 3-Z-[1-(4-(dimethylaminomethyl)-anilino)-1-phenyl-methylene]-6-methoxycarbonyl-2-indolinone], in data set [1], the IC50 came to 30 nM.
On the same count and under the same terms, under `COC(=O)c1ccc2c(c1)NC(=O)/C2=C(\Nc1ccc(N(CC(=O)N(C)C)C(C)=O)cc1)c1ccccc1` [(j), 3-Z-[1-(4-(N-acetyl-N-dimethylaminocarbonylmethyl-amino)-anilino)-1-phenyl-methylene]-6-methoxycarbonyl-2-indolinone] stands 20 nM; under `CCNCc1ccc(N/C(=C2\C(=O)Nc3cc(C(=O)OC)ccc32)c2ccccc2)cc1` [(k), 3-Z-[1-(4-ethylaminomethyl-anilino)-1-phenyl-methylene]-6methoxycarbonyl-2-indolinone], 30 nM; under `COC(=O)c1ccc2c(c1)NC(=O)/C2=C(\Nc1ccc(-c2nccn2C)cc1)c1ccccc1` [(l), 3-Z-[1-(4-(1-methyl-imidazol-2-yl)-anilino)-1-phenyl-methylene]-6-methoxycarbonyl-2-indolinone], 100 nM.
`COC(=O)c1ccc2c(c1)NC(=O)/C2=C(\Nc1ccc(N(C)C(=O)CN(C)C)cc1)c1ccccc1` [(m), 3-Z-[1-(4-(N-dimethylaminomethylcarbonyl-N-methyl-amino)-anilino)-1-phenyl-methylene]-6-methoxycarbonyl-2-indolinone]: in data set [1], the 50% inhibitory concentration (IC50) is 20 nM.
On the same count and under the same terms, under `COC(=O)c1ccc2c(c1)NC(=O)/C2=C(\Nc1ccc(N(CCN(C)C)S(C)(=O)=O)cc1)c1ccccc1` [(n), 3-Z-[1-(4-(N-(2-dimethylamino-ethyl)-N-methylsulphonyl-amino)-anilino)-1-phenyl-methylene]-6-methoxycarbonyl-2-indolinone] stands 20 nM.
The same measure, in the same setting: the result for `COC(=O)c1ccc2c(c1)NC(=O)/C2=C(\Nc1ccc(N(CCCN(C)C)S(C)(=O)=O)cc1)c1ccccc1` [(o), 3-Z-[1-(4-(N-(3-dimethylamino-propyl)-N-methylsulphonyl-amino)-anilino)-1-phenyl-methylene]-6methoxycarbonyl-2-indolinone] reads 10 nM; that for `COC(=O)c1ccc2c(c1)NC(=O)/C2=C(\Nc1ccc(N(CC(=O)N(C)C)S(C)(=O)=O)cc1)c1ccccc1` [(p), 3-Z-[1-(4-(N-dimethylaminocarbonylmethyl-N-methylsulphonyl-amino)-anilino)-1-phenyl-methylene]-6-methoxycarbonyl-2-indolinone], 20 nM.
For the compound `COC(=O)c1ccc2c(c1)NC(=O)/C2=C(\Nc1ccc(N(C)C(=O)CCN(C)C)cc1)c1ccccc1` [(q), 3-Z-[1-(4-(N-((2-dimethylamino-ethyl)-carbonyl)-N-methyl-amino)-anilino)-1-phenyl-methylene]-6-methoxycarbonyl-2-indolinone], the half-maximal inhibitory concentration (IC50) in data set [1] came out at 20 nM.
Still for that read-out and setting: the result for `COC(=O)c1ccc2c(c1)NC(=O)/C2=C(\Nc1ccc(N(CCN(C)C)C(C)=O)cc1)c1ccccc1` [(r), 3-Z-[1-(4-(N-(2-dimethylamino-ethyl)-N-acetyl-amino)-anilino)-1-phenyl-methylene]-6-methoxycarbonyl-2-indolinone] reads 10 nM.
Regarding `CNCc1ccc(N/C(=C2\C(=O)Nc3cc(C(=O)OC)ccc32)c2ccccc2)cc1` [(s), 3-Z-[1-(4methylaminomethyl-anilino)-1-phenyl-methylene]-6-methoxycarbonyl-2-indolinone], in data set [1], the concentration for half-maximal inhibition (IC50) worked out at 40 nM.
Broadly, the melting point is the temperature, or range, at which the solid turns liquid. With `COC(=O)c1ccc2c(c1)NC(=O)/C2=C(\Nc1ccc(Cc2ccccc2)cc1)c1ccccc1` [Example 3(60), 3-Z-[1-(4-benzyl-anilino)-1-phenyl-methylene]-6-methoxycarbonyl-2-indolinone], the melting point came to 224 °C.
